In article PMC9500858 (International Journal of Molecular Sciences, 2022):

What was measured:
[1] = tested on: NTS1 neurotensin receptor; conditions: replacement of Tle with Ile; cited from earlier work
Excerpt: (§1) Tle and Ile are structural isomers belonging to the same class of leucines with the same atomic composition (C6H13NO2) but they have different chemical structures, including different bond coordination and stereochemistry (Figure 1). Thus, their presence in the peptide structure led to diverse results. In fact, incorporation of Ile into the 9th position of the peptide chain caused a decrease in the analgesic activity in vivo when compared with PK20, having a tert-leucine (Tle9) in the corresponding position. Nonetheless, [Ile^9]PK20 produced the maximal pain-relieving effect, although wi ...

[2] = tested on: mu opioid receptor; conditions: replacement of Tle with Ile; cited from earlier work
Excerpt: as §1

[3] = Oxidative degradation (30% H2O2), LC-MS; type: physicochemical; conditions: n = 3
Experimental: (§2) The separation was carried out using Kinetex XB-C18 column (150 mm × 2.1 mm × 1.7 μm; Phenomenex, Torrance, CA, USA). The mobile phase consisted of A: 0.1% formic acid in deionized water and B: 0.1% formic acid in acetonitrile (MeCN). The two-step gradient was used from 5% B to 50% B in 13 min and from 50% B to 65% B up to 20 min. The column temperature was maintained at 25 °C with a flow rate equal to 0.3 mL/min. The eluate was introduced directly to the mass spectrometer. The ion trap setting was as follows: capillary voltage 4500 V, endplate offset 500 V, nebulizer pressure 40 psi, drying gas temperature 145 °C and gas flow rate 9 L/min. The instrument used a smart parameter setting (SPS) fixed at 1000 amu. The scan range was from m/z = 70 to m/z = 2200. Compounds were analyzed in […] ion mode.
(§3) Before LC analysis, the ionization of each quantified compound in the positive ion mode was optimized by the direct injection of standard (50 µg/mL in 0.1% HCOOH in H2O; 0.3 mL/min) into the ESI source of the mass spectrometer. The intensity of the most abundant ion for each compound was monitored in order to choose optimal conditions. The quantification of investigated compounds was performed using the dominating ion (for both PK20 and [Ile^9] PK20 the ion at m/z =1357.40 ± 0.3, retention time ca. 11.2 min).
(§4) The calibration curves were plotted as the amount of injected compound (ng) vs. detector response (peak area) using extracted ion chromatograms (EIC) for the characteristic ion for each compound. The linear range for each quantified compound was between 5 and 200 ng per injection. Five amount levels were used for the plotting of curves. Samples at each level were analyzed in triplicate.
(§5) The stability of PK20 and [Ile^9]PK20 was tested under acidic, basic, oxidative, heat, freeze and ultraviolet light conditions. All experiments were conducted in triplicate (n = 3). The comparison of peak areas in degradative and non-degradative conditions for both compounds can be observed in Figure 3 and Figure 4.
PK20 and [Ile^9]PK20 solution (50 μg/mL) was prepared in 30% (v/v) hydrogen peroxide (H2O2). Aliquots were incubated at 37 °C for 24 h and 80 °C for 12 h. After the incubation, each drug solution was diluted with an equal volume of 0.2% formic acid in acetonitrile and analyzed with LC-MS.

[4] = tested on: CA1 region of the hippocampus; experiment: Excitotoxic injury in organotypic hippocampal slice cultures subjected to NMDA; type: cell-based, Rat; conditions: administered simultaneously with NMDA, data not published
[5] = Thermal degradation and freeze-thaw in Mili-Q water, LC-MS; type: physicochemical; conditions: 50 μg/mL in Mili-Q water; for Concentration Found (Mean ± SD) / Recovery: n = 3
Experimental: as §2, §3, §4, §5
Solutions (50 μg/mL) of both hybrid peptides were prepared in Mili-Q water, and aliquots were kept at room temperature 22 °C, 37 °C and −80 °C for 24 h and at 80 °C for 12 h. One aliquot was also subjected to two freeze–thaw cycles with the sample first frozen at −80°C for 24 h, defrosted under running tap water at room temperature for 2 h and second frozen at −20°C for 24 h and defrosted under running tap water at room temperature for 2 h. Then, the solutions of PK20 and [Ile^9]PK20 were diluted with an equal volume of 0.2% formic acid in acetonitrile and analyzed with LC-MS.

[6] = Photolytic (UV) degradation in Mili-Q water, LC-MS; type: physicochemical; conditions: 365 nm UV light, 7 h, 50 μg/mL in Mili-Q water, clear plastic vials, n = 3
Experimental: as §2, §3, §4, §5
PK20 and [Ile^9]PK20 solution (50 μg/mL) was prepared in Mili-Q water, and aliquots were kept in clear plastic vials exposed to UV light (366 nm, Camag, UV Lamp 4, Camag, Switzerland) for 7 h. After the incubation, the drug solution was diluted with an equal volume of 0.2% formic acid in acetonitrile and analyzed with LC-MS.

[7] = target: mu opioid receptor; conditions: intrinsic activity of the receptor; read-out: EC50 (potency) at mu opioid receptor; cited from earlier work
Excerpt: Since hybrid compounds have gained attention due to their potent multifunctional behavior with a more favorable profile in terms of possible side effects, much work devoted to such compounds can be found. PK20 and [Ile^9]PK20, which are hybrid structures encompassing both opioid and neurotensin pharmacophores, although modified, were designed and synthesized to reduce pain.

[8] = Base hydrolysis (1 M NaOH) forced degradation, LC-MS; type: physicochemical; conditions: for Recovery / Concentration Found (Mean ± SD): basic degradation, 50 μg/mL in 1 M NaOH, n = 3; for Concentration Found (Mean ± SD): neutralised with 1 M HCl; for half-life (t1/2) in 1M NaOH: calculated half-life, alkaline conditions, 50 μg/mL, temperature not given for the half-life
Experimental: as §2, §3, §4, §5
(§6) Drug solution (50 μg/mL) was prepared in HCl (1 M) or NaOH (1 M). Aliquots were kept at a temperature of 80 °C (LBK type water bath, SWL Bytom, Poland) for 12 h and 37°C (medical water bath, LW102, Auritronic, Krakow, Poland) for 24 h. At a specific time-point, acidic and basic solutions of both PK20 and [Ile^9]PK20 were neutralized with an equal volume of 1 M NaOH or 1 M HCl, respectively, and diluted with an equal volume of 0.2% formic acid in acetonitrile and analyzed using LC-MS.

[9] = Acid hydrolysis (1 M HCl) forced degradation, LC-MS; type: physicochemical; conditions: for Recovery / Concentration Found (Mean ± SD): acidic degradation, 50 μg/mL in 1 M HCl, n = 3; for Concentration Found (Mean ± SD): neutralised with 1 M NaOH; for half-life in 1M HCl: calculated half-life, acidic conditions, 50 μg/mL, temperature not given for the half-life
Experimental: as §2, §3, §4, §5, §6

[10] = 50 μg/mL in 30% (v/v) H2O2, 37 °C, 24 h
[11] = 50 μg/mL in 30% (v/v) H2O2, 80 °C, 12 h
[12] = thermal degradation, 37 °C, 24 h
[13] = thermal degradation, 80 °C, 12 h
[14] = thermal degradation, room temperature (22 °C), 24 h
[15] = thermal degradation, −80 °C, 24 h
[16] = two freeze–thaw cycles (24 h −80 °C, 2 h 22 °C, 24 h −20 °C)
[17] = 37 °C, 24 h, LC-MS (EIC m/z 1357.40)
[18] = thermal, temperatures ranging from 22 °C through 37 °C to +80 °C

Row | Substance | Concentration Found (Mean ± SD) [3, 10] [ng/mL] | Recovery [3, 10] [%] | Concentration Found (Mean ± SD) [3, 11] [ng/mL] | Recovery [3, 11] [%] | Concentration Found (Mean ± SD) [5, 12] [ng/mL] | Recovery [5, 12] [%] | Concentration Found (Mean ± SD) [5, 13] [ng/mL] | Recovery [5, 13] [%] | Concentration Found (Mean ± SD) [5, 14] [ng/mL] | Recovery [5, 14] [%] | Concentration Found (Mean ± SD) [5, 15] [ng/mL] | Recovery [5, 15] [%] | Concentration Found (Mean ± SD) [5, 16] [ng/mL] | Concentration Found (Mean ± SD) [6] [ng/mL] | Recovery [6] [%] | EC50 [7] [nM] | Recovery ([8]; 37 °C, 24 h) [%] | Concentration Found (Mean ± SD) ([8]; 37 °C, 24 h) [ng/mL] | Recovery ([8]; 80 °C, 12 h) [%] | Concentration Found (Mean ± SD) ([8]; 80 °C, 12 h) [ng/mL] | other results
1 | HELM PEPTIDE1{[Cc1cc(O)cc(C)c1C[C@H](N)C(=O)[*:2]].[dK].F.F.K.K.P.F.I.L}$$$$V2.0 (N-terminus assumed; SMILES CC[C@H](C)[C@H](NC(=O)[C@H](Cc1ccccc1)NC(=O)[C@@H]1CCCN1C(=O)[C@H](CCCCN)NC(=O)[C@H](CCCCN)NC(=O)[C@H](Cc1ccccc1)NC(=O)[C@H](Cc1ccccc1)NC(=O)[C@@H](CCCCN)NC(=O)[C@@H](N)Cc1c(C)cc(O)cc1C)C(=O)N[C@@H](CC(C)C)C(=O)O) [[Ile^9]PK20, analogue of PK20 with Ile instead of Tle at position 9] | 31390 ± 270 | 62.79 | 8240 ± 6690 | 16.48 | 44160 ± 990 | 88.32 | 43270 ± 1180 | 86.54 | 49710 ± 2240 | 99.41 | 51870 ± 400 | 103.74 | 49040 ± 1030 | 9630 ± 110 | 19.25 | 1240 | 37.13 | 18560 ± 590 | 11.23 | 5610 ± 1830 | binding at NTS1 neurotensin receptor relative to PK20 [1]: reduced binding; binding at mu opioid receptor relative to PK20 [2]: reduced binding; extent of damage to the CA1 region of the hippocampus ([4]; dose 25 ng/mL): 8.53% ± 2.65; extent of damage to the CA1 region of the hippocampus ([4]; dose 50 ng/mL): 19.04% ± 8.52; extent of damage to the CA1 region of the hippocampus ([4]; dose 100 ng/mL): 8.62% ± 0.62; half-life (t1/2) in 1M NaOH [8]: 4.69 h; Recovery ([9]; 37 °C, 24 h, LC-MS): 88.79%; Concentration Found (Mean ± SD) [9, 17]: 44390 ± 4480 ng/mL; Recovery ([9]; 80 °C, 12 h, LC-MS): 52.25%; Concentration Found (Mean ± SD) ([9]; 80 °C, 12 h, LC-MS): 26120 ± 1520 ng/mL; half-life in 1M HCl ([9]; LC-MS): 117.7 h
2 | HELM PEPTIDE1{[Cc1cc(O)cc(C)c1C[C@H](N)C(=O)[*:2]].[dK].F.F.K.K.P.F.[CC(C)(C)[C@H](N[*:1])C(=O)[*:2]].L}$$$$V2.0 (N-terminus assumed; SMILES Cc1cc(O)cc(C)c1C[C@H](N)C(=O)N[C@H](CCCCN)C(=O)N[C@@H](Cc1ccccc1)C(=O)N[C@@H](Cc1ccccc1)C(=O)N[C@@H](CCCCN)C(=O)N[C@@H](CCCCN)C(=O)N1CCC[C@H]1C(=O)N[C@@H](Cc1ccccc1)C(=O)N[C@H](C(=O)N[C@@H](CC(C)C)C(=O)O)C(C)(C)C) [PK20, opioid–neurotensin hybrid peptide] | 30520 ± 490 | 61.04 | 9800 ± 200 | 19.60 | 49980 ± 350 | 99.97 | 48670 ± 2740 | 97.34 | 51360 ± 1640 | 102.72 | 51900 ± 200 | 103.80 | 43250 ± 9420 | 18720 ± 940 | 37.44 | 79 | 30.32 | 15160 ± 340 | 11.44 | 5710 ± 1670 | remaining concentration of the peptide [5, 18]: approximately 50 μg/mL; remaining peptide as percentage [5, 18]: ~100%; Recovery [5, 16]: 86.50%; half-life (t1/2) in 1M NaOH [8]: 11.36 h; Recovery ([9]; 37 °C, 24 h, LC-MS): 78.19%; Concentration Found (Mean ± SD) [9, 17]: 39090 ± 6330 ng/mL; Recovery ([9]; 80 °C, 12 h, LC-MS): 54.43%; Concentration Found (Mean ± SD) ([9]; 80 °C, 12 h, LC-MS): 27220 ± 2750 ng/mL; half-life in 1M HCl ([9]; LC-MS): 204.4 h
